Measurements: US20110305784A1, “Fractionated products obtained from gamboge resin, and medical uses of the same” (priority 2010, published 2011)
Converted amounts (≈) assume the structure as drawn. Like-named read-outs stand apart in the source and are kept apart here.

Tests used:
[1] = test system: Human promyelocytic leukemia cell HL-60; experiment: cells; details: for CC50: HL-60, read-out: LC50 (50% lethal concentration)
From the text: (§1) The in vitro anti-cancer test was primarily used to detect the effect of a candidate drug on cancer cell proliferation. The working principle involved therein is the ability of viable cells to shift alamarBlue (AbD Serotec, UK) from its originally non-fluorescent oxidized state (non-fluorescent, blue) to a reduced form (fluorescent, red) having fluorescence via metabolic reaction. According to the fluorescent data result generated by the alamarBlue reagent thus obtained, the proliferation of the viable cells and cell activity can be quantified for detection.
(§2) In the in vitro anti-cancer tests, a candidate drug was tested at 5 different concentrations of 0.01, 0.1, 1, 10, and 100 μg/ml, and six human cancer cell lines and a normal human cell line were used (see Table 10).

[2] = test system: Human histocytic lymphoma cell U937; experiment: cells; details: for CC50: U-937, read-out: LC50 (50% lethal concentration)
From the text: as §1, §2

[3] = test system: Human umbilical venal epithelial cell (HUVEC); experiment: in vitro; details: HUVEC; for IC50: Homo sapiens
From the text: as §1, §2

[4] = test system: Human colon adenocarcinoma cell HT-29; experiment: cells; details: for CC50: HT-29, read-out: LC50 (50% lethal concentration)
From the text: as §1, §2

[5] = test system: Human lung carcinoma cell A549; experiment: cells; details: for CC50: A549, read-out: LC50 (50% lethal concentration)
From the text: as §1, §2

[6] = test system: Human hepatocellular carcinoma cell HepG2; experiment: cells; details: for CC50: HepG2, read-out: LC50 (50% lethal concentration)
From the text: as §1, §2

[7] = test system: Human breast adenocarcinoma cell MCF7; experiment: cells; details: for CC50: MCF7, read-out: LC50 (50% lethal concentration)
From the text: as §1, §2

[8] = in vitro; details: human
From the text: as §1, §2

[9] = HL-60, read-out: IC50 (50% inhibition concentration)
[10] = U-937, read-out: IC50 (50% inhibition concentration)
[11] = A549, read-out: IC50 (50% inhibition concentration)
[12] = read-out: IC50 (50% inhibition concentration)
[13] = MCF7, read-out: IC50 (50% inhibition concentration)
[14] = HT-29, read-out: IC50 (50% inhibition concentration)
[15] = HL-60, read-out: IC50 (50% inhibition concentration), HL-60
[16] = A549, read-out: IC50 (50% inhibition concentration), A549
[17] = HepG2, read-out: IC50 (50% inhibition concentration), HepG2
[18] = U-937, read-out: IC50 (50% inhibition concentration), U937
[19] = read-out: IC50 (50% inhibition concentration), HUVEC
[20] = MCF7, read-out: IC50 (50% inhibition concentration), MCF-7
[21] = HT-29, read-out: IC50 (50% inhibition concentration), HT-29
[22] = HepG2, read-out: IC50 (50% inhibition concentration)

Row | Compound | IC50 [1, 9] [µg/mL] | CC50 [1] [µg/mL] | LC50 (50% lethal concentration) [3] [µg/mL] | CC50 [4] [µg/mL] | CC50 [6] [µg/mL] | CC50 [5] [µg/mL] | CC50 [2] [µg/mL] | CC50 [7] [µg/mL] | also measured
1 | CC(C)=CCc1c2c(c(O)c3c1O[C@]14C(=C[C@@H]5CC1C(C)(C)O[C@]4(C/C=C(\C)C=O)C5=O)C3=O)C=CC(C)(C)O2 [Gh-2501, isomorellin] | 1 (≈ 1.84 µM) | 4 (≈ 7.34 µM) | 1.8 (≈ 3.3 µM) | 4 (≈ 7.34 µM) | – | – | – | – | IC50 [2, 10]: 0.9 µg/mL (≈ 1.65 µM)
2 | C=C(C)[C@@H]1CC[C@@]2(C)CC1c1c(O)c3c(c(CC=C(C)C)c1O2)O[C@]12C(=C[C@@H]4CC1C(C)(C)O[C@]2(/C=C/C(C)C(=O)O)C4=O)C3=O (stereo partly drawn) [Gh-2507, β-epigambogellic acid] | 0.2 (≈ 0.318 µM) | – | 21.0 (≈ 33.4 µM) | – | – | – | – | – | –
3 | CC(C)=CCc1c2c(c(O)c3c1O[C@]1(C)CCC4[C@H]3C1C4(C)C)C(=O)C1=CC3CC4C(C)(C)O[C@](C/C=C(/C)C(=O)O)(C3=O)[C@@]14O2 [Gh-2607-B, formoxanthone B] | – | – | 1.6 (≈ 2.54 µM) | 1 (≈ 1.59 µM) | 4 (≈ 6.36 µM) | – | – | – | IC50 [5, 11]: 0.1 µg/mL (≈ 0.159 µM); IC50 [2, 10]: 0.1 µg/mL (≈ 0.159 µM); IC50 [3, 12]: 0.07 µg/mL (≈ 0.111 µM); IC50 [7, 13]: 0.1 µg/mL (≈ 0.159 µM); IC50 [4, 14]: 0.3 µg/mL (≈ 0.477 µM)
4 | CC(C)=CCC[C@]1(C)C=Cc2c(O)c3c(c(CC=C(C)C)c2O1)O[C@]12C(=C[C@@H]4CC1C(C)(C)O[C@]2(C/C=C(/CO)C(=O)O)C4=O)C3=O [Gh-1601-A, 30-hydroxygambogic acid] | – | 3 (≈ 4.65 µM) | – | 0.77 (≈ 1.19 µM) | 4.1 (≈ 6.36 µM) | 6.6 (≈ 10.2 µM) | 0.28 (≈ 0.434 µM) | 4.4 (≈ 6.82 µM) | IC50 [1, 15]: 0.56 µg/mL (≈ 0.869 µM); IC50 [5, 16]: 0.11 µg/mL (≈ 0.171 µM); IC50 [6, 17]: 1.3 µg/mL (≈ 2.02 µM); IC50 [2, 18]: 0.09 µg/mL (≈ 0.14 µM); IC50 [3, 19]: 0.19 µg/mL (≈ 0.295 µM); IC50 [7, 20]: 0.72 µg/mL (≈ 1.12 µM); IC50 [4, 21]: 0.17 µg/mL (≈ 0.264 µM)
5 | CC(C)=CCC[C@@]1(C)C=Cc2c(O)c3c(c(CC=C(C)C)c2O1)O[C@]12C(=C[C@@H]4CC1C(C)(C)O[C@]2(C/C=C(\C)C(=O)O)C4=O)C3=O [Gh-1642, epiisogambogic acid] | 6 (≈ 9.54 µM) | – | 1.3 (≈ 2.07 µM) | – | – | – | – | – | –
6 | CC(C)=CCC[C@]1(C)C=Cc2c(O)c3c(c(CC=C(C)C)c2O1)O[C@]12C(=C[C@@H]4CC1C(C)(C)OC2(C/C=C(/C)C(=O)O)C4=O)C3=O [Gh-2605, gambogic acid] | – | – | 1.6 (≈ 2.54 µM) | – | – | – | – | – | –
7 | CC(C)=CCc1c2c(c(O)c3c1O[C@]14C(=C[C@@H]5CC1C(C)(C)OC4(C/C=C(/C)C(=O)O)C5=O)C3=O)C=C[C@@](C)(CCC(O)C(C)(C)O)O2 (stereo partly shown) [Gh-3261, formoxanthone J] | – | 7 (≈ 10.6 µM) | – | 3.9 (≈ 5.88 µM) | 2.8 (≈ 4.22 µM) | 0.5 (≈ 0.754 µM) | 0.31 (≈ 0.468 µM) | 2.8 (≈ 4.22 µM) | CC50 [8]: 1.4 µg/mL (≈ 2.11 µM)
8 | CC(C)=CCc1c2c(c(O)c3c1O[C@@]1(C)CCC4C3C1C4(C)C)C(=O)C1=C[C@@H]3CC4C(C)(C)O[C@](C/C=C(/C)C(=O)O)(C3=O)[C@@]14O2 [Gh-2607-1A, epiformoxanthone B] | – | – | 1.5 (≈ 2.39 µM) | – | – | – | – | – | –
9 | CC(C)=CCC[C@]1(C)C=Cc2c(O)c3c(c(CC(O)C(C)(C)O)c2O1)O[C@]12C(=C[C@@H]4CC1C(C)(C)OC2(C/C=C(/C)C(=O)O)C4=O)C3=O (stereo partly shown) [Gh-1052, formoxanthone F] | – | 3.4 (≈ 5.13 µM) | – | 5.7 (≈ 8.6 µM) | 4 (≈ 6.04 µM) | 2.5 (≈ 3.77 µM) | 0.69 (≈ 1.04 µM) | 2.4 (≈ 3.62 µM) | CC50 [8]: 3.1 µg/mL (≈ 4.68 µM)
10 | C=C(C)C1CC[C@]2(C)C[C@H]1c1c(O)c3c(c(CC=C(C)C)c1O2)O[C@]12C(=CC4CC1C(C)(C)O[C@]2(C/C=C(/C)C(=O)O)C4=O)C3=O (stereo partly shown) [Gh-2603-2, gambogellic acid] | 0.93 (≈ 1.48 µM) | 2.4 (≈ 3.82 µM) | – | 3.9 (≈ 6.2 µM) | 3.5 (≈ 5.57 µM) | 0.47 (≈ 0.748 µM) | 3.6 (≈ 5.73 µM) | 4.2 (≈ 6.68 µM) | IC50 [5, 11]: 0.2 µg/mL (≈ 0.318 µM); IC50 [6, 22]: 0.65 µg/mL (≈ 1.03 µM); IC50 [2, 10]: 1.5 µg/mL (≈ 2.39 µM); IC50 [3, 12]: 0.14 µg/mL (≈ 0.223 µM); IC50 [7, 13]: 2.2 µg/mL (≈ 3.5 µM); IC50 [4, 14]: 1.4 µg/mL (≈ 2.23 µM)
11 | CC(C)=CCC/C(C)=C/Cc1c(O)c(CC=C(C)C)c2c(c1O)C(=O)C1=C[C@@H]3CC4C(C)(C)OC(CC=C(C)C)(C3=O)[C@@]14O2 [Gh-4301, desoxygambogenin] | – | > 100 | 1.3 (≈ 2.16 µM) | – | – | – | > 100 | – | –
12 | C=C(C)C1CC[C@]2(C)C[C@H]1c1c(O)c3c(c(CC=C(C)C)c1O2)O[C@]12C(=C[C@@H]4CC1C(C)(C)O[C@]2(/C=C/C(C)C(=O)O)C4=O)C3=O (stereo partly drawn) [Gh-2508, β-gambogellic acid] | – | – | 5.4 (≈ 8.59 µM) | – | – | – | – | – | –
13 | CC(C)=CCC[C@]1(C)C[C@H](O)c2c(O)c3c(c(CC=C(C)C)c2O1)O[C@]12C(=C[C@@H]4CC1C(C)(C)O[C@]2(C/C=C(/C)C(=O)O)C4=O)C3=O (stereo in doubt) [Gh-2641-1, neogambogic acid] | – | – | 4.3 (≈ 6.65 µM) | – | – | – | 1 (≈ 1.55 µM) | – | IC50 [7, 13]: 0.2 µg/mL (≈ 0.309 µM)
14 | C=C(C)[C@@H]1CC[C@@]2(C)CC1c1c(O)c3c(c(CC=C(C)C)c1O2)O[C@]12C(=C[C@@H]4CC1C(C)(C)O[C@]2(C/C=C(/C)C(=O)O)C4=O)C3=O [Gh-2603-1, epigambogellic acid] | 1 (≈ 1.59 µM) | 2.9 (≈ 4.61 µM) | – | 3.7 (≈ 5.88 µM) | 3.3 (≈ 5.25 µM) | 0.34 (≈ 0.541 µM) | 3.1 (≈ 4.93 µM) | 4.2 (≈ 6.68 µM) | IC50 [5, 11]: 0.036 µg/mL (≈ 0.0573 µM); IC50 [6, 22]: 1 µg/mL (≈ 1.59 µM); IC50 [2, 10]: 1.3 µg/mL (≈ 2.07 µM); IC50 [3, 12]: 0.26 µg/mL (≈ 0.414 µM); IC50 [7, 13]: 2.2 µg/mL (≈ 3.5 µM); IC50 [4, 14]: 1.6 µg/mL (≈ 2.54 µM)
15 | CC(C)=CCC[C@@]1(C)C=Cc2c(O)c3c(c(CC=C(C)C)c2O1)O[C@]12C(=C[C@@H]4CC1C(C)(C)O[C@]2(C/C=C(/CO)C(=O)O)C4=O)C3=O [Gh-1602, 30-hydroxyepigambogic acid] | – | 3.3 (≈ 5.12 µM) | – | 4.2 (≈ 6.51 µM) | 3.5 (≈ 5.43 µM) | 3.7 (≈ 5.74 µM) | 0.69 (≈ 1.07 µM) | 4 (≈ 6.2 µM) | IC50 [1, 15]: 1 µg/mL (≈ 1.55 µM); IC50 [5, 16]: 0.4 µg/mL (≈ 0.62 µM); IC50 [6, 17]: 1.3 µg/mL (≈ 2.02 µM); IC50 [2, 18]: 0.14 µg/mL (≈ 0.217 µM); IC50 [3, 19]: 0.25 µg/mL (≈ 0.388 µM); IC50 [7, 20]: 0.27 µg/mL (≈ 0.419 µM); IC50 [4, 21]: 0.94 µg/mL (≈ 1.46 µM)
16 | CC(C)=CCC/C(C)=C/Cc1c(O)c(CC=C(C)C)c2c(c1O)C(=O)C1=C[C@@H]3CC4C(C)(C)O[C@](C/C=C(\C)C(=O)O)(C3=O)[C@@]14O2 [Gh-2642, isogambogenic acid] | 9 (≈ 14.3 µM) | – | 11 (≈ 17.4 µM) | – | – | – | – | – | IC50 [7, 13]: 3 µg/mL (≈ 4.76 µM)
17 | CC(C)=CCC[C@@]1(C)C=Cc2c(O)c3c(c(CC=C(C)C)c2O1)O[C@]12C(=C[C@@H]4CC1C(C)(C)O[C@]2(C/C=C(/C)C(=O)O)C4=O)C3=O [Gh-2606, epigambogic acid] | – | – | 1.4 (≈ 2.23 µM) | 2 (≈ 3.18 µM) | 3 (≈ 4.77 µM) | – | – | – | IC50 [5, 11]: 0.1 µg/mL (≈ 0.159 µM)
18 | CC(C)=CCC[C@]1(C)C=Cc2c(O)c3c(c(CC=C(C)C)c2O1)O[C@]12C(=C[C@@H]4CC1C(C)(C)O[C@]2(C/C=C(\C)C(=O)O)C4=O)C3=O [Gh-1641, isogambogic acid] | 8 (≈ 12.7 µM) | – | 1.3 (≈ 2.07 µM) | – | – | 3 (≈ 4.77 µM) | – | – | –
19 | CC(C)=CCC/C(C)=C/Cc1c(O)c(CC=C(C)C)c2c(c1O)C(=O)C1=C[C@@H]3CC4C(C)(C)O[C@](C/C=C(/C)C(=O)O)(C3=O)[C@@]14O2 [Gh-2505, gambogenic acid] | – | – | 2.3 (≈ 3.65 µM) | – | – | – | – | – | –
